Results: US7799821B2, “Therapeutic compounds” (Allergan, Inc., priority 2004, dated 2010)
Read-outs that look alike come from different tables or passages of the source. Values belong to the compound of their own block, whether it stands above or below them.

How the values were obtained:
hTP = target: T1, hTP (Homo sapiens, UniProt P21731); test: FLIPR calcium signal, hTP; type: cell-based
T1 construct: expressed in transfected cells; host or cells: HEK-293(EBNA)
T1 sequence (P21731 1-343): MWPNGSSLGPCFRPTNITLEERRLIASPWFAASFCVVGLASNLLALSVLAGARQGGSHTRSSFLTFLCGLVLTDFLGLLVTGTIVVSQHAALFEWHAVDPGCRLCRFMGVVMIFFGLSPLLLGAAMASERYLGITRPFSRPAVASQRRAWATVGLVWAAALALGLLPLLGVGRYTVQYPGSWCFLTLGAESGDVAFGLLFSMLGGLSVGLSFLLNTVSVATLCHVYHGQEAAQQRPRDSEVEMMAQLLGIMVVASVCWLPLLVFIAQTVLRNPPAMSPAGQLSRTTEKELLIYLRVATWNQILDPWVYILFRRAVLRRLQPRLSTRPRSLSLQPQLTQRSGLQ
Experimental: (§1) HEK-293(EBNA) cells, stably expressing one type or subtype of recombinant human prostaglandin receptors (prostaglandin receptors expressed: hDP/Gqs5; hEP1; hEP2/Gqs5; hEP3A/Gqi5; hEP4/Gqs5; hFP; hIP; hTP), were cultured in 100 mm culture dishes in high-glucose DMEM medium containing 10% fetal bovine serum, 2 mM 1-glutamine, 250 μg/ml geneticin (G418) and 200 μg/ml hygromycin B as selection markers, and 100 units/ml penicillin G, 100 μg/ml streptomycin and 0.25 μg/ml amphotericin B. • (b) Calcium Signal Studies on the FLIPR™
(§2) Cells were seeded at a density of 5×10^4 cells per well in Biocoat® Poly-D-lysine-coated black-wall, clear-bottom 96-well plates (Becton-Dickinson) and allowed to attach overnight in an incubator at 37° C. Cells were then washed two times with HBSS-HEPES buffer (Hanks Balanced Salt Solution without bicarbonate and phenol red, 20 mM HEPES, pH 7.4) using a Denley Cellwash plate washer (Labsystems). After 45 minutes of dye-loading in the dark, using the calcium-sensitive dye Fluo-4 AM at a final concentration of 2 μM, plates were washed four times with HBSS-HEPES buffer to remove excess dye leaving 100 μl in each well. Plates were re-equilibrated to 37° C. for a few minutes.
(§3) Cells were excited with an Argon laser at 488 nm, and emission was measured through a 510-570 nm bandwidth emission filter (FLIPR™, Molecular Devices, Sunnyvale, Calif.). Drug solution was added in a 50 μl volume to each well to give the desired final concentration. The peak increase in fluorescence intensity was recorded for each well. On each plate, four wells each served as negative (HBSS-HEPES buffer) and positive controls (standard agonists: BW245C (hDP); PGE2 (hEP1; hEP2/Gqs5; hEP3A/Gqi5; hEP4/Gqs5); PGF2α (hFP); carbacyclin (hIP); U-46619 (hTP), depending on receptor). The peak fluorescence change in each drug-containing well was then expressed relative to the controls.
(§4) Compounds were tested in a high-throughput (HTS) or concentration-response (CoRe) format. In the HTS format, forty-four compounds per plate were examined in duplicates at a concentration of 10^−5 M. To generate concentration-response curves, four compounds per plate were tested in duplicates in a concentration range between 10^−5 and 10^−11 M. The duplicate values were averaged. In either, HTS or CoRe format each compound was tested on at least 3 separate plates using cells from different passages to give an n≧3.

EP4 receptors = target: T2, EP4 receptors (Homo sapiens, UniProt P35408); test: Radioligand binding ([3H]PGE2), EP4; details: unit inferred; read-out: EP4 data KI
T2 construct: expressed in transfected cells; host or cells: HEK-293
Experimental: (§5) HEK-293 cells stably expressing the human or feline FP receptor, or EP1, EP2, or EP4 receptors were washed with TME buffer, scraped from the bottom of the flasks, and homogenized for 30 sec using a Brinkman PT 10/35 polytron. TME buffer was added to achieve a final 40 ml volume in the centrifuge tubes (the composition of TME is 100 mM TRIS base, 20 mM MgCl2, […]; 10N HCl is added to achieve a pH of 7.4).
(§6) The cell homogenate was centrifuged at 19000 r.p.m. for 20 min at 4° C. using a Beckman Ti-60 rotor. The resultant pellet was resuspended in TME buffer to give a final 1 mg/ml protein concentration, as determined by Biorad assay. Radioligand binding competition assays vs. [^3H-]17 —phenyl PGF2α (5 nM) were performed in a 100 μl volume for 60 min. Binding reactions were started by adding plasma membrane fraction. The reaction was terminated by the addition of 4 ml ice-cold TRIS-HCl buffer and rapid filtration through glass fiber GF/B filters using a Brandel cell harvester. The filters were washed 3 times with ice-cold buffer and oven dried for one hour.
(§7) [^3H-] PGE2 (specific activity 180 Ci mmol) was used as the radioligand for EP receptors. [^3H] 17-phenyl PGF2α was employed for FP receptor binding studies. Binding studies employing EP1, EP2, EP4 and FP receptors were performed in duplicate in at least three separate experiments. A 200 μl assay volume was used. Incubations were for 60 min at 25° C. and were terminated by the addition of 4 ml of ice-cold 50 mM TRIS-HCl, followed by rapid filtration through Whatman GF/B filters and three additional 4 ml washes in a cell harvester (Brandel). Competition studies were performed using a final concentration of 5 nM [^3H]—PGE2, or 5 nM [^3H] 17-phenyl PGF2α and non-specific binding determined with 10^−5M of unlabeled PGE2, or 17-phenyl PGF2α, according to receptor subtype studied.

hDP/Gqs5 = target: T3, hDP/Gqs5 (Homo sapiens, UniProt Q13258); test: FLIPR calcium signal, hDP; type: cell-based
T3 construct: expressed in transfected cells; host or cells: HEK-293(EBNA)
T3 sequence (Q13258 1-359): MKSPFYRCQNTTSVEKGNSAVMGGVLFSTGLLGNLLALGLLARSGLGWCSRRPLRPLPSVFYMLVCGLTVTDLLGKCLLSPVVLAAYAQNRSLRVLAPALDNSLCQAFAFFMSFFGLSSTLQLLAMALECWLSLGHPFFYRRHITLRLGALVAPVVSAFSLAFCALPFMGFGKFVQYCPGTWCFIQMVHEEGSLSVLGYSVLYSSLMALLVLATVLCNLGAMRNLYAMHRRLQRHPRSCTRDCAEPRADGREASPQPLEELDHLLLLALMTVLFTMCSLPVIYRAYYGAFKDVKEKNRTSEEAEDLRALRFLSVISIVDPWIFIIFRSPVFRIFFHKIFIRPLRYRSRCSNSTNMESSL
Experimental: as §1, §2, §3, §4

hEP4/Gqs5 = target: T4, hEP4/Gqs5 (Homo sapiens, UniProt P35408); test: FLIPR calcium signal, hEP4; type: cell-based; details: unit inferred; read-out: EP4 data flipr EC50
T4 construct: expressed in transfected cells; host or cells: HEK-293(EBNA)
Experimental: as §1, §2, §3, §4

human EP2 receptors = target: T5, human EP2 receptors (Homo sapiens, UniProt P43116); test: Competition radioligand binding ([3H]PGE2), EP2; details: unit inferred; read-out: EP2 data Ki
T5 construct: expressed in transfected cells; host or cells: HEK 293
Experimental: Competition binding experiments were performed in a medium containing Hank's balanced salt solution, […], membranes (˜60 μg protein) or 2×10^5 cells from HEK 293 cells stably expressing human EP2 receptors, [^3H]PGE2 (10 nM) and various concentrations of test compounds in a total volume of 300 μl. Reaction mixtures were incubated at 23° C. for 60 min, and were filtered over Whatman GF/B filters under vacuum. Filters were washed three times with 5 ml ice-cold buffer containing 50 mM Tris/HCl (pH 7.3). Non-specific binding was estimated in the presence of excess unlabeled PGE2 (10 μM). Binding data fitted to the binding model for a single class of binding sites, using nonlinear regression analysis. IC50 values thus obtained were converted to Ki using the equation of Ki=(IC50/(1+[L]/KD) where [L] represents PGE2 concentration (10 nM) and KD the dissociation constant for [^3H]PGE2 at human EP2 receptors (40 nM).
as §5, §6, §7

hEP2/Gqs5 = target: T6, hEP2/Gqs5 (Homo sapiens, UniProt P43116); test: FLIPR calcium signal, hEP2; type: cell-based
T6 construct: expressed in transfected cells; host or cells: HEK-293(EBNA)
Experimental: as §1, §2, §3, §4

[1] = target: T7, HEK-EBNA cells expressing a PG EP2 receptor subtype (Homo sapiens, UniProt P43116); test: cAMP assay, EP2; type: cell-based; details: unit inferred; read-out: EP2 data cAMP EC50
T7 construct: expressed in transfected cells; host or cells: HEK-EBNA
Experimental: A 384-well drug plate was prepared to contain 6 test compounds, PGE2 and cAMP in 16 serial dilutions in triplicate, using a Biomek station. HEK-EBNA cells expressing a target PG receptor subtype (EP2 or EP4) were suspended in a stimulation buffer (HBSS, 0.1% BSA, 0.5 mM IBMX and 5 mM HEPES, pH 7.4) in a density of 10^4 cells/5 μl. The reaction was initiated by mixing 5 μL drug dilutions with 5 μl of HEK-EBNA cells in a well, carried out for 30 min at room temperature, and followed by the addition of 5 μl anti-cAMP acceptor beads in the control buffer with Tween-20 (25 mM NaCl, 0.03% Tween-20, 5 mM HEPES, pH7.4). After 30 min in the dark at room temperature, the mixtures were incubated with 15 μl biotinylated-cAMP/strepavidin donor beads in Lysis/Detection buffer (0.1% BSA, 0.3% Tween-20 and 5 mM HEPES, pH7.4) for 45 min at the room temperature. Fluorescence changes were read using a Fusion-alpha HT microplate reader.

[2] = read-out: FUNCTIONAL Ca2+ EC50 HTP
[3] = read-out: Other Receptors EC50 hDP
[4] = unit inferred, other columns of the table in nM, read-out: EP2 data flipr EC50
[5] = FLIPR Ca2+ signal, HEK-293(EBNA), read-out: FUNCTIONAL EC50 HEP2
[6] = FLIPR Ca2+ signal, HEK-293(EBNA), read-out: FUNCTIONAL EC50 HTP
[7] = FLIPR Ca2+ signal, HEK-293(EBNA), read-out: FUNCTIONAL EC50 HDP

T6 sequence (P43116 whole entry): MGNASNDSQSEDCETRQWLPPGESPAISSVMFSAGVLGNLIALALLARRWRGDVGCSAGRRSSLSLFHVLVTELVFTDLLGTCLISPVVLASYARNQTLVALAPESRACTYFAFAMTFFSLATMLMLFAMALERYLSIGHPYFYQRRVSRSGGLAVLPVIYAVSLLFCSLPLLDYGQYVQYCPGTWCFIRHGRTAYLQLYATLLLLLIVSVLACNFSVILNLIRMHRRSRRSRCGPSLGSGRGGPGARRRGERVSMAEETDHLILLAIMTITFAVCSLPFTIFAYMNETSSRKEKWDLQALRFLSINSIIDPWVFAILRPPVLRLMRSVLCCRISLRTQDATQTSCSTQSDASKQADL
T5 sequence (P43116 whole entry): as above
T2 sequence (P35408 whole entry): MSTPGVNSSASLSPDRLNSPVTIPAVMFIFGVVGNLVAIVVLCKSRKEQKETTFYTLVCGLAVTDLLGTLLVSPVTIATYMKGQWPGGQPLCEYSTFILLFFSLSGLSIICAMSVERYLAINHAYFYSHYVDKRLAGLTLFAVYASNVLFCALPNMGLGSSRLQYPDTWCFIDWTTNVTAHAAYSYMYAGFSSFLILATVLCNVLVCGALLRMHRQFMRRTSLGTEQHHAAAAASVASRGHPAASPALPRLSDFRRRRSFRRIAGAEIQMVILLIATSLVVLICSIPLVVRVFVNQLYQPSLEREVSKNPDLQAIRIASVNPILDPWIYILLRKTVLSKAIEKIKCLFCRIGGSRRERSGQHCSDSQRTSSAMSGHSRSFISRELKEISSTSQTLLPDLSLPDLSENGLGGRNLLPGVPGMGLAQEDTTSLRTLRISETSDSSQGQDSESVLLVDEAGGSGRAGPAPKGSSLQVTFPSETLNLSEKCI
T4 sequence (P35408 whole entry): as above
T7 sequence (P43116 whole entry): as the sequence (P43116 whole entry) above

SMILES: CCCC1([C@@H](O)c2cccc([C@H]3CCC(=O)[C@@H]3C/C=C\CCCC(=O)OC)c2)CCC1
EC50 (hTP; [2]): > 10 µM

SMILES: CCCCCC(O)c1ccc(N2C(=O)CC[C@@H]2COCc2ccc(C(=O)O)s2)cc1 (some centres unmarked)
Ki (EP4 receptors): > 10 µM | EC50 (hDP/Gqs5; [3]): 3.23 µM | EC50 (hEP4/Gqs5): > 10 µM | Ki (human EP2 receptors): 0.115 µM | EC50 (hEP2/Gqs5; [4]): 8 nM

SMILES: O=C(O)CCC/C=C\C[C@@H]1[C@@H](c2ccc(C3(O)CCC3)cc2)[C@H](O)C[C@H]1Cl
EC50 (hEP2/Gqs5; [5]): 513 nM | EC50 (hTP; [6]): > 10 µM

SMILES: COC(=O)CCC/C=C\C[C@H]1C(=O)C[C@@H](O)[C@@H]1c1ccc(C(C)(C)C)cc1
EC50 (hEP2/Gqs5; [5]): > 10000 nM | EC50 (hTP; [6]): > 10 µM

SMILES: CCCC1(C(O)c2cccc(C3C(O)CC(=O)C3Cc3cccc(OCC(=O)O)c3)c2)CCC1 (centres unmarked)
EC50 (hDP/Gqs5; [7]): > 10 µM

Results, then the compound that gave them:

EC50 (hEP2/Gqs5; read-out: FUNCTIONAL Ca2+ EC50 HEP2): > 10000 nM | EC50 (hTP; [2]): > 10 µM
SMILES: COC(=O)CCCCCC[C@H]1C(=O)CC[C@@H]1c1ccc(C(O)C2CCCCC2)cc1 (some centres unmarked)

EC50 (hEP2/Gqs5; [5]): > 10000 nM | EC50 (hTP; [6]): > 10 µM
SMILES: COC(=O)CCCCCC[C@@H]1[C@@H](c2ccc(C3(O)CCC3)cc2)[C@H](O)C[C@H]1Cl

EC50 [1]: 0.312 µM | Ki (EP4 receptors): > 10 µM | EC50 (hDP/Gqs5; [3]): 7.56 µM | EC50 (hEP4/Gqs5): > 10 µM | Ki (human EP2 receptors): 5.73 µM | EC50 (hEP2/Gqs5; [4]): 1810 nM
SMILES: CCC(O)c1ccc(N2C(=O)CC[C@@H]2COCc2ccc(C(=O)O)s2)cc1 (some centres unmarked)

EC50 (hDP/Gqs5; [7]): > 10 µM | EC50 (hEP2/Gqs5; [5]): 3440 nM
SMILES: O=C(O)CCCCCC[C@@H]1[C@@H](c2ccc(CC3CCCCC3)cc2)[C@H](O)C[C@H]1Cl
